Results as given in PMC9788509, “Arginine Homopeptide of 11 Residues as a Model of Cell-Penetrating Peptides in the Interaction with Bacterial Membranes” (Membranes, 2022).
Where “and” joins values, the source holds several entries; their conditions need not be identical. Equal entries are not always repeated. No end group written: not given here.

What was measured:
Escherichia coli (ML35) = type: cell-based; conditions: E. coli ML35; 1 × 10^7 CFU/mL; 1% TSB, 10 mM Hepes; 10, 20 and 30 μM peptide, 1 h at 37 °C; serial dilution, 18 h at 37 °C in complete TSB; turbidity; duplicate
Experimental: (§1) The strains used, Staphylococcus aureus (ATCC 25923) and Escherichia coli (ML35), were obtained from the Public Health Institute of Chile (ISP).
(§2) To determine the antibacterial activity of the peptides, a microplate dilution test was performed. The necessary calculations were completed with a bacterial concentration of 1 × 10^7 CFU/mL and the cells were exposed to 50 µL of Tryptic soy broth (TSB) with 1%, 10 mM of Hepes buffer and 10, 20 and 30 μM of peptide for 1 h at 37 °C. Finally, a serial dilution was performed and incubated for 18 h at 37 °C in complete TSB, and the minimum bactericidal concentration (MCB) was determined depending on the turbidity of the plate. All experiments were completed in duplicate. A synthetic peptide of sequence KKWRWWLKALAKK from the venom of the Bothrops asper snake was used as a positive control for growth inhibition.

[1] = tested on: Staphylococcus aureus (ATCC 25923); type: cell-based; conditions: S. aureus ATCC 25923; 1 × 10^7 CFU/mL; 1% TSB, 10 mM Hepes; 10, 20 and 30 μM peptide, 1 h at 37 °C; serial dilution, 18 h at 37 °C in complete TSB; turbidity; duplicate
Experimental: as §1, §2

E coli = assay: Membrane permeabilization by SYTOX green assay; type: cell-based, Escherichia coli; conditions: E. coli 1 × 10^6 CFU/mL in PBS 1X; 90 µL bacteria, 5 µL peptide at 200 µM, 5 µL SYTOX Green at 100 µM; 30 cycles of one minute at 30 °C; triplicate
Experimental: (§3) To verify the effect of peptides on cell membrane integrity, a SYTOX green uptake assay was used, as previously described. Briefly, E coli and S. aureus cultures in exponential phase of growth were centrifuged at 2000× g for 5 min and washed with PBS 1X to prepare a solution at a concentration of 1 × 10^6 CFU/mL in PBS 1X. Then, in 100 μL qPCR tubes, 90 µL of the bacterial solution, 5 µL of peptide at 200 µM and 5 µL of SYTOX Green dye at 100 µM were added. The q-PCR tubes were placed in an Applied Biosystems StepOnePlus™ Real-Time PCR Systems thermocycler, programmed with 30 cycles for one minute at 30 °C, using the Syber green filter, recording the fluorescence data at the end of each cycle. Each assay was performed in triplicate.

S. aureus = assay: Membrane permeabilization by SYTOX green assay; type: cell-based, Staphylococcus aureus; conditions: S. aureus 1 × 10^6 CFU/mL in PBS 1X; 90 µL bacteria, 5 µL peptide at 200 µM, 5 µL SYTOX Green at 100 µM; 30 cycles of one minute at 30 °C; triplicate
Experimental: as §3

C[C@H](N)C(=O)N[C@@H](CCCNC(=N)N)C(=O)N[C@@H](CCCNC(=N)N)C(=O)N[C@@H](CCCNC(=N)N)C(=O)N[C@@H](CCCNC(=N)N)C(=O)N[C@@H](CCCNC(=N)N)C(=O)N[C@@H](CCCNC(=N)N)C(=O)N[C@@H](CCCNC(=N)N)C(=O)N[C@@H](CCCNC(=N)N)C(=O)N[C@@H](CCCNC(=N)N)C(=O)N[C@@H](CCCNC(=N)N)C(N)=O [A1]
Minimum Bactericidal Concentration (Escherichia coli (ML35)): >30 µM

C[C@H](NC(=O)[C@H](CCCNC(=N)N)NC(=O)[C@H](CCCNC(=N)N)NC(=O)[C@H](CCCNC(=N)N)NC(=O)[C@H](CCCNC(=N)N)NC(=O)[C@H](CCCNC(=N)N)NC(=O)[C@H](CCCNC(=N)N)NC(=O)[C@H](CCCNC(=N)N)NC(=O)[C@H](CCCNC(=N)N)NC(=O)[C@H](CCCNC(=N)N)NC(=O)[C@@H](N)CCCNC(=N)N)C(N)=O [A11]
Minimum Bactericidal Concentration [1]: 8 µM
Minimum Bactericidal Concentration (Escherichia coli (ML35)): 20 µM
Percentage of polyproline II, Equation (2): 49% (2×) and 45% and 50%

CC(C)C[C@H](N)C(=O)N[C@@H](CCCNC(=N)N)C(=O)N[C@@H](CCCNC(=N)N)C(=O)N[C@@H](CCCNC(=N)N)C(=O)N[C@@H](CCCNC(=N)N)C(=O)N[C@@H](CCCNC(=N)N)C(=O)N[C@@H](CCCNC(=N)N)C(=O)N[C@@H](CCCNC(=N)N)C(=O)N[C@@H](CCCNC(=N)N)C(=O)N[C@@H](CCCNC(=N)N)C(=O)N[C@@H](CCCNC(=N)N)C(N)=O [L1]
Minimum Bactericidal Concentration [1]: 9 µM
Minimum Bactericidal Concentration (Escherichia coli (ML35)): 13 µM

CC(C)C[C@H](NC(=O)[C@H](CCCNC(=N)N)NC(=O)[C@H](CCCNC(=N)N)NC(=O)[C@H](CCCNC(=N)N)NC(=O)[C@H](CCCNC(=N)N)NC(=O)[C@H](CCCNC(=N)N)NC(=O)[C@H](CCCNC(=N)N)NC(=O)[C@H](CCCNC(=N)N)NC(=O)[C@H](CCCNC(=N)N)NC(=O)[C@H](CCCNC(=N)N)NC(=O)[C@@H](N)CCCNC(=N)N)C(N)=O [L11]
Minimum Bactericidal Concentration (Escherichia coli (ML35)): 30 µM

N=C(N)NCCC[C@H](NC(=O)[C@H](CCCNC(=N)N)NC(=O)[C@H](CCCNC(=N)N)NC(=O)[C@H](CCCNC(=N)N)NC(=O)[C@H](CCCNC(=N)N)NC(=O)[C@H](CCCNC(=N)N)NC(=O)[C@H](CCCNC(=N)N)NC(=O)[C@H](CCCNC(=N)N)NC(=O)[C@H](CCCNC(=N)N)NC(=O)[C@H](CCCNC(=N)N)NC(=O)[C@@H]1CCCN1)C(N)=O [P1]
Minimum Bactericidal Concentration (Escherichia coli (ML35)): 18 µM

N=C(N)NCCC[C@H](NC(=O)[C@H](CCCNC(=N)N)NC(=O)[C@H](CCCNC(=N)N)NC(=O)[C@H](CCCNC(=N)N)NC(=O)[C@H](CCCNC(=N)N)NC(=O)[C@@H](N)CCCNC(=N)N)C(=O)N[C@@H](CCCNC(=N)N)C(=O)N[C@@H](CCCNC(=N)N)C(=O)N[C@@H](CCCNC(=N)N)C(=O)N[C@@H](CCCNC(=N)N)C(=O)N1CCC[C@H]1C(N)=O [P11]
Minimum Bactericidal Concentration [1]: 18 µM
Minimum Bactericidal Concentration (Escherichia coli (ML35)): 30 µM

N=C(N)NCCC[C@H](NC(=O)[C@H](CCCNC(=N)N)NC(=O)[C@H](CCCNC(=N)N)NC(=O)[C@H](CCCNC(=N)N)NC(=O)[C@H](CCCNC(=N)N)NC(=O)[C@H](CCCNC(=N)N)NC(=O)[C@H](CCCNC(=N)N)NC(=O)[C@H](CCCNC(=N)N)NC(=O)[C@H](CCCNC(=N)N)NC(=O)[C@H](CCCNC(=N)N)NC(=O)[C@@H](N)CCCNC(=N)N)C(N)=O [R11]
Minimum Bactericidal Concentration (Escherichia coli (ML35)): 30 µM

N=C(N)NCCC[C@H](NC(=O)[C@H](CCCNC(=N)N)NC(=O)[C@H](CCCNC(=N)N)NC(=O)[C@H](CCCNC(=N)N)NC(=O)[C@H](CCCNC(=N)N)NC(=O)[C@H](CCCNC(=N)N)NC(=O)[C@H](CCCNC(=N)N)NC(=O)[C@H](CCCNC(=N)N)NC(=O)[C@H](CCCNC(=N)N)NC(=O)[C@H](CCCNC(=N)N)NC(=O)[C@@H](N)Cc1c[nH]c2ccccc12)C(N)=O [W1]
Minimum Bactericidal Concentration [1]: >30 µM
Minimum Bactericidal Concentration (Escherichia coli (ML35)): 30 µM

N=C(N)NCCC[C@H](NC(=O)[C@H](CCCNC(=N)N)NC(=O)[C@H](CCCNC(=N)N)NC(=O)[C@H](CCCNC(=N)N)NC(=O)[C@H](CCCNC(=N)N)NC(=O)[C@H](CCCNC(=N)N)NC(=O)[C@H](CCCNC(=N)N)NC(=O)[C@H](CCCNC(=N)N)NC(=O)[C@H](CCCNC(=N)N)NC(=O)[C@@H](N)CCCNC(=N)N)C(=O)N[C@@H](Cc1c[nH]c2ccccc12)C(N)=O [W11]
Minimum Bactericidal Concentration [1]: 10 µM
Minimum Bactericidal Concentration (Escherichia coli (ML35)): 20 µM

KKWRWWLKALAKK
SYTOX green fluorescence (membrane permeabilization) (E coli): high fluorescence
SYTOX green fluorescence (membrane permeabilization) (S. aureus): high fluorescence

RARRRRRRRRR-NH2 [A2]
Minimum Bactericidal Concentration (Escherichia coli (ML35)): 18 µM

RLRRRRRRRRR-NH2 [L2]
Minimum Bactericidal Concentration [1]: 12 µM
Minimum Bactericidal Concentration (Escherichia coli (ML35)): 8 µM

RPRRRRRRRRR-NH2 [P2]
Minimum Bactericidal Concentration (Escherichia coli (ML35)): 30 µM

RRARRRRRRRR-NH2 [A3]
Minimum Bactericidal Concentration (Escherichia coli (ML35)): 10 µM

RRLRRRRRRRR-NH2 [L3]
Minimum Bactericidal Concentration [1]: 9 µM
Minimum Bactericidal Concentration (Escherichia coli (ML35)): 10 µM

RRPRRRRRRRR-NH2 [P3]
Minimum Bactericidal Concentration [1]: 8 µM
Minimum Bactericidal Concentration (Escherichia coli (ML35)): 28 µM

RRRARRRRRRR-NH2 [A4]
Minimum Bactericidal Concentration (Escherichia coli (ML35)): 26 µM
Percentage of polyproline II, Equation (2): 46% (2×) and 58% and 51%

RRRLRRRRRRR-NH2 [L4]
Minimum Bactericidal Concentration [1]: 9 µM
Minimum Bactericidal Concentration (Escherichia coli (ML35)): 20 µM

RRRPRRRRRRR-NH2 [P4]
Minimum Bactericidal Concentration (Escherichia coli (ML35)): >30 µM
Percentage of polyproline II, Equation (2): 49% (2×) and 29% and 41%

RRRRARRRRRR-NH2 [A5]
Minimum Bactericidal Concentration (Escherichia coli (ML35)): 20 µM

RRRRLRRRRRR-NH2 [L5]
Minimum Bactericidal Concentration [1]: 8 µM
Minimum Bactericidal Concentration (Escherichia coli (ML35)): 18 µM

RRRRPRRRRRR-NH2 [P5]
Minimum Bactericidal Concentration [1]: 8 µM
Minimum Bactericidal Concentration (Escherichia coli (ML35)): 28 µM

RRRRRARRRRR-NH2 [A6]
Minimum Bactericidal Concentration (Escherichia coli (ML35)): 26 µM

RRRRRLRRRRR-NH2 [L6]
Minimum Bactericidal Concentration [1]: 28 µM
Minimum Bactericidal Concentration (Escherichia coli (ML35)): >30 µM

RRRRRPRRRRR-NH2 [P6]
Minimum Bactericidal Concentration (Escherichia coli (ML35)): 18 µM

RRRRRRARRRR-NH2 [A7]
Minimum Bactericidal Concentration (Escherichia coli (ML35)): 20 µM

RRRRRRLRRRR-NH2 [L7]
Minimum Bactericidal Concentration (Escherichia coli (ML35)): 9 µM

RRRRRRPRRRR-NH2 [P7]
Minimum Bactericidal Concentration [1]: 7 µM
Minimum Bactericidal Concentration (Escherichia coli (ML35)): 10 µM

RRRRRRRARRR-NH2 [A8]
Minimum Bactericidal Concentration (Escherichia coli (ML35)): 30 µM

RRRRRRRLRRR-NH2 [L8]
Minimum Bactericidal Concentration (Escherichia coli (ML35)): 18 µM
Percentage of polyproline II, Equation (2): 51% and 65% (2×) and 62%

RRRRRRRPRRR-NH2 [P8]
Minimum Bactericidal Concentration [1]: 9 µM
Minimum Bactericidal Concentration (Escherichia coli (ML35)): 30 µM
Percentage of polyproline II, Equation (2): 49% (2×) and 40% and 50%

RRRRRRRRARR-NH2 [A9]
Minimum Bactericidal Concentration (Escherichia coli (ML35)): >30 µM

RRRRRRRRLRR-NH2 [L9]
Minimum Bactericidal Concentration (Escherichia coli (ML35)): 8 µM

RRRRRRRRPRR-NH2 [P9]
Minimum Bactericidal Concentration [1]: 10 µM
Minimum Bactericidal Concentration (Escherichia coli (ML35)): 20 µM
Percentage of polyproline II, Equation (2): 41% (2×) and 27% and 43%

RRRRRRRRRAR-NH2 [A10]
Minimum Bactericidal Concentration [1]: 6 µM
Minimum Bactericidal Concentration (Escherichia coli (ML35)): 10 µM

RRRRRRRRRLR-NH2 [L10]
Minimum Bactericidal Concentration (Escherichia coli (ML35)): 20 µM

RRRRRRRRRPR-NH2 [P10]
Minimum Bactericidal Concentration [1]: 30 µM
Minimum Bactericidal Concentration (Escherichia coli (ML35)): 30 µM

RRRRRRRRRWR-NH2 [W10]
Minimum Bactericidal Concentration (Escherichia coli (ML35)): 20 µM
Percentage of polyproline II, Equation (2): 46% and 68% and 49% (2×)

RRRRRRRRWRR-NH2 [W9]
Minimum Bactericidal Concentration [1]: 10 µM
Minimum Bactericidal Concentration (Escherichia coli (ML35)): 20 µM

RRRRRRRWRRR-NH2 [W8]
Minimum Bactericidal Concentration [1]: 20 µM
Minimum Bactericidal Concentration (Escherichia coli (ML35)): 20 µM

RRRRRRWRRRR-NH2 [W7]
Minimum Bactericidal Concentration [1]: 8 µM
Minimum Bactericidal Concentration (Escherichia coli (ML35)): 14 µM

RRRRRWRRRRR-NH2 [W6]
Minimum Bactericidal Concentration [1]: 20 µM
Minimum Bactericidal Concentration (Escherichia coli (ML35)): 15 µM

RRRRWRRRRRR-NH2 [W5]
Minimum Bactericidal Concentration [1]: 10 µM
Minimum Bactericidal Concentration (Escherichia coli (ML35)): 20 µM

RRRWRRRRRRR-NH2 [W4]
Minimum Bactericidal Concentration [1]: 20 µM
Minimum Bactericidal Concentration (Escherichia coli (ML35)): 20 µM

RRWRRRRRRRR-NH2 [W3]
Minimum Bactericidal Concentration [1]: 20 µM
Minimum Bactericidal Concentration (Escherichia coli (ML35)): >30 µM

RWRRRRRRRRR-NH2 [W2]
Minimum Bactericidal Concentration [1]: 30 µM
Minimum Bactericidal Concentration (Escherichia coli (ML35)): >30 µM
Percentage of polyproline II, Equation (2): 56% (2×) and 64% and 47%
